Converted amounts (≈) assume the structure as drawn. Where two headings read alike, the source gives them in different places.
Legend:
[1] = tested on: Epstein-Barr Virus (EBV); assay: EBV immunofluorescence assay in DAUDI cells (P3HR-1 strain); type: cell-based
Method: The immunofluorescence assay, using monoclonal antibodies, for Epstein-Barr Virus (EBV) was performed as follows: DAUDI cells were infected with the P3HR-1 strain of EBV and the test drug was added after adsorption (45 min. at 37° C.) and washing of the cell cultures. These cultures were then incubated for 2 days in complete medium to allow viral gene expression. Following the 48 h incubation period, the number of cells in each sample were counted and smears were made. Monoclonal antibodies to the different early antigen (EA) components and VCA were than added to the cells, incubated and washed. This was followed by the addition of a fluorescein conjugated rabbit anti mouse Ig antibodies. The number of fluorescence positive cells in the smears were counted and the total number of cells in the cultures positive for EA or VCA were then calculated and compared.

[2] = tested on: VZV (Ellen); assay: CPE inhibition assay VZV (Ellen) in HFF cells; type: cell-based, varicella zoster virus; details: for EC50: Human alphaherpesvirus 3, HFF, Table 2
Method: (§1) Cytopathic effect (CPE) inhibition assays for HSV-1, HSV-2, HCMV and VZV were performed as follows: Low passage human foreskin fibroblasts (HFF) cells were seeded into 96 well tissue culture plates 24 h prior to use at a cell concentration of 2.5×10^4 cells per mL in 0.1 mL of minimal essential medium (MEM) supplemented with 10% fetal bovine serum (FBS). The cells were then incubated for 24 h at 37° C. in a CO2 incubator. After incubation, the medium was removed and 100 μL of MEM containing 2% FBS was added to all but the first row. In the first row, 125 μL of experimental drug was added in triplicate wells. Medium alone was added to both cell and virus control […]. After incubation, the medium was removed and 100 μl of MEM containing 2% FBS was added to all but the first row. Medium alone was added to both cell and virus control wells. 125 μl of Experimental drug was added in triplicate wells. The drug in the first row of wells was then diluted serially 1:5 throughout the remaining wells by transferring 25 μL using the Cetus Liquid Handling Machine. After dilution of drugs, 100 μL of the appropriate virus concentration was added to each well, excluding the cell control wells which received 100 μL of MEM. For HSY-1 and HSV-2 assays, the virus concentration utilized was 1000 PFU's per well. For CMV and VZV assays, the virus concentration added was 2500 PFU's per well. The plates were then incubated at 37° C. in a CO2 incubator for 3 days for HSV-1 and HSV-2, 10 days for VZV, or 14 days for CMV. After the incubation period, media was aspirated and the cells stained with a 0.1% crystal violet solution for 30 min. The stain was then removed and the plates were allowed to dry 24 h and then read on a Skatron Plate Reader at 620 nm.

[3] = tested on: HCMV (AD169); assay: CPE inhibition assay HCMV (AD169) in HFF cells; type: cell-based, human cytomegalovirus; details: for EC50: Human betaherpesvirus 5, AD169, HFF, Table 2
Method: as §1

[4] = tested on: HSV-1 (KOS) HSV-TK+; assay: HSV-1 (KOS) HSV-TK+ antiviral assay; type: cell-based, Herpes simplex virus type-1; details: Table 4
Method: as §1

[5] = tested on: HSV-2 (MS); assay: CPE inhibition assay HSV-2 (MS) in HFF cells; type: cell-based, Herpes simplex virus type-2; details: Table 4
Method: as §1

[6] = tested on: HSV-1 (KOSSB) HSV-TK−; assay: microbe, parasite or virus in culture; type: cell-based, Herpes simplex virus type-1; details: Table 4
Method: as §1, with “The” for “Cytopathic effect (CPE) inhibition assays for HSV-1, HSV-2, HCMV and VZV were performed as follows: Low passage human foreskin fibroblasts (HFF) cells were seeded into 96 well tissue culture plates 24 h prior to use at a cell concentration of 2.5×10^4 cells per mL in 0.1 mL of minimal essential medium (MEM) supplemented with 10% fetal bovine serum (FBS). The”

[7] = tested on: duck hepatitis B virus (DHBV); assay: DHBV DNA replication in primary duck hepatocytes (dot blot hybridization); type: cell-based
Method: A series of compounds were synthesized and assayed for activity against duck hepatitis B virus (DHBV). […] Test compounds were added to the hepatocyte cultures on day 2 and maintained in culture with media changed every second day until day 12. Cell were harvested at day 14 and lysed with buffer containing 1% SDS. DNA was isolated from the lysate and dot blot hybridization was performed using a DHBV (32P) DNA probe. […]
(§2) The compounds were assayed for a) their ability to inhibit DHBV DNA replication in duck hepatocytes, b) their ability to inhibit HBV DNA replication in HepG2 2.2.15 cells, c) the cell cytotoxicity in Vero cells, the cell viability in HFF cells, d) the cell proliferation in HFF cells, and e) the T cell proliferation (purified T cells, PHA stimulated). 3-TC was used as a control.

[8] = tested on: HSV-1 (E-377); assay: CPE inhibition assay HSV-1 (E-377) in HFF cells; type: cell-based, Herpes simplex virus type-1; details: Table 4
Method: as §1

[9] = tested on: whole human PBLs; assay: Cell proliferation, whole human PBLs; type: cell-based; details: Table 1
[10] = tested on: Vero cells; assay: Cell cytotoxicity in Vero cells; type: cell-based
Method: as §2

[11] = Cell viability in HFF cells (neutral red); type: cell-based, human; details: human, HFF cells
Method: (§3) Twenty-four hours prior to assay HFF cells were plated into 96 well plates at a concentration of 2.5×10^4 cells per well. […] The plates were incubated for 7 days in a CO2 incubator at 37° C. At this time the media/drug was aspirated and 200 μL/well of 0.01% neutral red in Dulbecco's Phosphate Buffered Saline (DPBS) was added. This was incubated in the CO2 incubator for 2 h, the dye was aspirated and the cells were washed using a Nunc Plate Washer. After removing the DPBS wash, […] of 50% EtOH: 1% glacial acetic acid in water was added. The plates were rotated for 15 min. and the optical densities were read at 550 nm on a plate reader.

[12] = Cell cytotoxicity in Vero cells; type: cell-based; details: African green monkey, Vero cells
Method: as §2

[13] = tested on: HFF cells; assay: Cell proliferation assay in HFF cells; type: cell-based, human; details: Table 2; for IC50: Homo sapiens, HFF
Method: The media from the wells was then aspirated and 2 mL of each drug concentration was then added to each well. The cells were incubated in a CO2 incubator at 37° C. for 72 h. At the end of this time, the media-drug solution was removed and the cells were washed. […] The cell-media mixture was then pipetted up and down vigorously to break up the cell suspension and 0.2 mL of the mixture was added to 9.8 mL of isoton III and counted using a Coulter Counter. Each sample was counted three times with three replicate wells per sample.

[14] = tested on: HFF cells; assay: Cell viability in HFF cells (neutral red); type: cell-based, human
Method: as §3

[15] = tested on: human HBV; assay: HBV DNA replication in HepG2 2.2.15 cells; type: cell-based, hepatitis B virus
Method: as §2, with “control. Additional compounds described below in the Preparative Examples section were also tested, and the results are shown in Tables 2-4 below. The reference numbers for the compounds are found in the Preparative Examples.” for “control.”

[16] = Duck hepatitis B virus, Hepatocyte, read-out: % Inh. of DHBV DNA in duck hepatocytes @ 10 μg/ml
[17] = Duck hepatitis B virus, Hepatocyte, Table 2, value in brackets, read-out: DHBV DNA in duck hepatocytes [EC50, μg/ml]

| Compound | CC50 at 7 days ([11]; Table 2) [µg/mL] | CC50 ([12]; Table 2) [µg/mL] | IC50 [13] [µg/mL] | inhibition at 10 µg/mL [7, 16] [%] | EC50 [7, 17] [µg/mL] | EC50 [2] [µg/mL] | EC50 [3] [µg/mL] | further results |
| --- | --- | --- | --- | --- | --- | --- | --- | --- |
| (5S,6S)-5-bromo-O^6-5′-cyclo-5,6-dihydro-3′-azido-3′-deoxythymidine [Compound R-1] | – | – | – | – | – | – | – | EBV EC50 ([1]; Table 4): 1.4 µg/mL; VZV (Ellen) EC50 ([2]; Table 4): >100 µg/mL; HCMV (AD-169) EC50 ([3]; Table 4): 20 µg/mL; HSV-1 (KOS) HSV-TK+ EC50 [4]: 10 to 25 µg/mL; HSV-2 (MS) EC50 [5]: 20 µg/mL; HSV-1 (KOSSB) HSV-TK− EC50 [6]: 1 to 10 µg/mL; EC50 (DHBV DNA replication in duck hepatocytes) ([7]; Table 1): (EC50 = 0.035 μg/ml; HSV-1 (E-377) EC50, μg/ml [8]: 20 μg/ml; IC50 [9]: 34 µM |
| CC1(F)C(=O)NC(=O)N2C3CC(N=[N+]=[N-])C(COC21)O3 [Compound R-13, (5R,6S)5-fluoro-O^6-5′-cyclo-5,6-dihydro-3′-azido-3′-deoxythymidine] | – | – | – | – | – | – | – | HSV-1 (KOS) HSV-TK+ EC50 [4]: >25 µg/mL; CC50 ([10]; Table 1): > 700 µM; HSV-1 (KOSSB) HSV-TK− EC50 [6]: >50 µg/mL; % Inhibition of DHBV DNA replication in duck hepatocytes @10 μg/ml [7]: 36.0% |
| C=C(N=[N+]=[N-])c1cn(COCCO)c(=O)[nH]c1=O [Compound 7, 1-[(2-hydroxyethoxy)methyl]-5-(1-azidovinyl)-uracil] | > 100 | > 100 | > 100 | 84 | 0.01 to 0.1 | – | – | – |
| [N-]=[N+]=NC(CCl)c1cn(COC(CO)CO)c(=O)[nH]c1=O (stereo not drawn) [Compound 10b, 1-[(2-Hydroxy-1-(hydroxymethyl)ethoxy)methyl]-5-(1-azido-2-chloroethyl)uracil] | > 100 | > 200 | > 100 | 75 | 1 to 5 | 5 (≈ 15.6 µM) | 10 (≈ 31.3 µM) | – |
| CCC1(F)C(=O)NC(=O)N([C@@H]2O[C@H](CO)[C@@H](O)[C@@H]2F)C1OC (stereo partly drawn) [RC-1, 5-Ethyl-5-fluoro-6-methoxy-5,6-dihydro-2′-arabinofluoro-2′-deoxyuridine] | – | – | – | – | – | – | – | EBV EC50 ([1]; Table 5): <0.08 µg/mL; EBV EC90 ([1]; Table 5, in parentheses): (EC90 = <0.08) μg/ml; Cell viability HFF cells CC50 ([14]; Table 5): >100 µg/mL; Cell Cytotoxicity, Vero cells CC50 ([10]; Table 5): >100 µg/mL |
| [N-]=[N+]=NC(CI)c1cn(COC(CO)CO)c(=O)[nH]c1=O (stereo not drawn) [Compound 10c, 1-[(2-Hydroxy-1-(hydroxymethyl)ethoxy)methyl]-5-(1-azido-2-iodoethyl)uracil] | > 100 | > 200 | > 100 | 75 | 1 to 5 | 1 (≈ 2.43 µM) | 10 (≈ 24.3 µM) | – |
| Nc1ccn([C@@H]2CS[C@H](CO)O2)c(=O)n1 [Compound 3-TC, lamivudine, reference compound] | – | – | – | 96 | 0.01 to 0.05 | – | – | inhibition at 0.1 µg/mL ([15]; Hepatitis B virus, HepG2 2.2.15, read-out: % Inh. of human HBV DNA replication in HepG2 2.2.15 cells @ 0.1 μg/ml (left)): 90%; CC50 at 7 days ([11]; Table 5): > 100 µg/mL; CC50 ([12]; Table 5): > 100 µg/mL; inhibition at 1 µg/mL ([7]; Duck hepatitis B virus, Hepatocyte, read-out: % Inhibition of DHBV DNA in duck hepatocytes @1.0 μg/ml): 95%; inhibition at 10 µg/mL ([7]; Duck hepatitis B virus, Hepatocyte, read-out: % Inhibition of DHBV DNA in duck hepatocytes @10.0 μg/ml): 100%; EC50 ([7]; Duck hepatitis B virus, Hepatocyte, Table 3a, read-out: % Inhibition of DHBV DNA in duck hepatocytes EC50): 0.07 µM |
| C=C(N=[N+]=[N-])c1cn(CCC(CO)CO)c(=O)[nH]c1=O [Compound 26, 1-[4-Hydroxy-3-(hydroxymethyl),1-butyl]-5-(1-azidovinyl)uracil] | > 100 | > 200 | > 100 | 93 | 0.01 to 0.05 | – | – | – |
| [N-]=[N+]=NC(CCl)c1cn(CCC(CO)CO)c(=O)[nH]c1=O (stereo not drawn) [Compound 21b, 1-[4-Hydroxy-3-(hydroxymethyl)-1-butyl]-5-(1-azido-2chloroethyl)uracil] | > 100 | > 200 | > 100 | 84 | 0.1 to 0.5 | 6 (≈ 18.9 µM) | 1 (≈ 3.15 µM) | – |
| C=C(N=[N+]=[N-])c1cn(COC(CO)CO)c(=O)[nH]c1=O [Compound 13] | – | – | – | – | – | – | – | % Inh. of human HBV DNA replication in HepG2 2.2.15 cells @ 0.01 μg/ml (right) ([15]; Table 2, 0.01 μg/ml): 17.0%; % Inh. of human HBV DNA replication in HepG2 2.2.15 cells @ 0.1 μg/ml (left) ([15]; Table 2, 0.1 μg/ml): 75.4%; Cell viability HFF cells CC50 ([14]; Table 2): >100 µg/mL; Cell Cytotoxicity, Vero cells CC50 ([10]; Table 2): >200 µg/mL; Cell proliferation, HFF cells IC50 [13]: >100 µg/mL; DHBV DNA in duck hepatocytes [EC50, μg/ml] ([7]; Table 2, value in brackets): 0.01 to 0.1 µg/mL; % Inh. of DHBV DNA in duck hepatocytes @ 10 μg/ml ([7]; Table 2, 10 μg/ml): 85.6% |

Source: patent US7589077B2, “Antiviral nucleosides” (priority 2001, dated 2009)
